Measurements as given in patent US9637453B2, “3-spirocyclic-6-hydroxamic acid tetralins as HDAC inhibitors” (Forma Therapeutics, Inc., priority 2015, dated 2017).
pIC50: −log10 of the molar value.

What was measured:
[1] = target: T1, Full length human recombinant HDAC6 (Homo sapiens, UniProt Q9UBN7); assay: In vitro histone deacetylase assay, enzymatic HDAC6 (electrophoretic mobility shift assay); type: biochemical; settings: 1 nM HDAC6; 2 μM peptide substrate FAM-RHKK(Ac)—NH2; 25° C.; 12 concentrations; read-out: HDAC6 Activity Range (IC50)
T1 construct: Full length human recombinant HDAC6 and HDAC11 proteins were expressed in baculoviral system
T1 sequence (Q9UBN7 1-1215): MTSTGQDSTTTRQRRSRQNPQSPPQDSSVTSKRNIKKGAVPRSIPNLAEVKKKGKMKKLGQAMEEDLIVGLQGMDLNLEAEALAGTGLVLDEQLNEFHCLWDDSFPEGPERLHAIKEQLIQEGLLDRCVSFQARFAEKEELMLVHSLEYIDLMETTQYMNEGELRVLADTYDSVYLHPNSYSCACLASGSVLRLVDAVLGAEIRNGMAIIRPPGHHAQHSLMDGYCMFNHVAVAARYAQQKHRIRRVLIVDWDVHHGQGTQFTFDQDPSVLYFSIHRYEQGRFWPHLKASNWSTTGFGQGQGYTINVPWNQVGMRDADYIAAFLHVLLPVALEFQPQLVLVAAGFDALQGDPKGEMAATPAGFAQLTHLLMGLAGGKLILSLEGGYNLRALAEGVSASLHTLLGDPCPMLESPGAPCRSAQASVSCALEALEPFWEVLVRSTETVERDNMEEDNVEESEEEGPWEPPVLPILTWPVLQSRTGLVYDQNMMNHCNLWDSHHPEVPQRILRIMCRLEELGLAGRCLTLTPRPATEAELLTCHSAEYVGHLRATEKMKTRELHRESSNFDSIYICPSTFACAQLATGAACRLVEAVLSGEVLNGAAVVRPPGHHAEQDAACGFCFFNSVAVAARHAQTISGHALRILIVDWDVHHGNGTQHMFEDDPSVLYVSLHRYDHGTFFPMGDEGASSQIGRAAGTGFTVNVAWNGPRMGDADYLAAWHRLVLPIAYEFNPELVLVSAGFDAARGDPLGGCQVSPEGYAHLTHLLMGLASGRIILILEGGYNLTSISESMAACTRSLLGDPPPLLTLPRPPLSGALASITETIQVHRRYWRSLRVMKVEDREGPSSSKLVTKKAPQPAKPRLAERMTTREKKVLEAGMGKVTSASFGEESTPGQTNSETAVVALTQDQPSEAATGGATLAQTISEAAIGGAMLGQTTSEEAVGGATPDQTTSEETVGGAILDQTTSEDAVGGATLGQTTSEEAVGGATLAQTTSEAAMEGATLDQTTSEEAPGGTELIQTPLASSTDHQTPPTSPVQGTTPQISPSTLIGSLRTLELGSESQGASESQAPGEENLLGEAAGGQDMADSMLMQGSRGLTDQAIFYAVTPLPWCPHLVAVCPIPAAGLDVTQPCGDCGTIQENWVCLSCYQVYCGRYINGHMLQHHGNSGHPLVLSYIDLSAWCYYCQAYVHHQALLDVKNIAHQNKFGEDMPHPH
Protocol: (§1) The enzymatic HDAC6 and HDAC11 assays were performed using electrophoretic mobility shift assay. Full length human recombinant HDAC6 and HDAC11 proteins were expressed in baculoviral system and purified by affinity chromatography. The enzymatic reactions were assembled in 384 well plates in a total volume of 25 μL in a reaction buffer composing: 100 mM HEPES, pH 7.5, 25 mM KCl, 0.1% bovine serum albumin, 0.01% Triton X-100, 1% DMSO (from compounds) 2 μM of the fluorescently labeled peptide substrate and enzyme. The enzymes were added at a final concentration of 1 nM for HDAC6, and 10 nM for HDAC11. The peptide substrate FAM-RHKK(Ac)—NH2 was used for HDAC6, and FAM-RHKK(tri-fluor-Ac)—NH2 for HDAC11. The compounds were tested at 12 concentrations spaced by 3× dilution intervals. Negative control samples (0%-inhibition in the absence of inhibitor) and positive control samples (100%-inhibition) were assembled in replicates of four in each assay plate. The reactions were incubated at 25° C. and quenched by the addition of 45 μL of termination buffer (100 mM HEPES, pH 7.5, 0.01% Triton X-100, 0.05% SDS).
(§2) The terminated assay plates were analyzed on LabChip® 3000 microfluidic electrophoresis instrument (Perkin Elmer/Caliper Life Sciences). The fluorescence intensity of the electrophoretically separated de-acetylated product and substrate peptide was measured. Activity in each sample was determined as the product to sum ratio (PSR): P/(S+P), where P is the peak height of the product peptide and S is the peak height of the substrate peptide. Percent inhibition (Pinh) is determined using following equation:
(§3) Pinh=(PSR0%−PSRinh)/(PSR0%−PSR100%)*100, where PSRinh is the product sum ratio in the presence of inhibitor, PSR0% is the average product sum ration in the absence of inhibitor and PSR100% is the average product sum ratio in 100%-inhibition control samples. The IC50 values of inhibitors were determined by fitting the %-inhibition curves with 4 parameter dose-response model using XLfit 4 software.
(§4) As set forth in Table-26 and Table-27, below, IC5o values are defined as follows: IC50≦0.1 μM (+++); IC50>0.1 μM and ≦0.5 μM (++); IC50>0.5 μM (+).

[2] = target: T2, Full length human recombinant HDAC11 (Homo sapiens, UniProt Q96DB2); assay: In vitro histone deacetylase assay, enzymatic HDAC11 (electrophoretic mobility shift assay); type: biochemical; settings: 10 nM HDAC11; 2 μM peptide substrate FAM-RHKK(tri-fluor-Ac)—NH2; 25° C.; 12 concentrations; read-out: HDAC11 Activity Range (IC50)
T2 construct: Full length human recombinant HDAC6 and HDAC11 proteins were expressed in baculoviral system
T2 sequence (Q96DB2 1-347): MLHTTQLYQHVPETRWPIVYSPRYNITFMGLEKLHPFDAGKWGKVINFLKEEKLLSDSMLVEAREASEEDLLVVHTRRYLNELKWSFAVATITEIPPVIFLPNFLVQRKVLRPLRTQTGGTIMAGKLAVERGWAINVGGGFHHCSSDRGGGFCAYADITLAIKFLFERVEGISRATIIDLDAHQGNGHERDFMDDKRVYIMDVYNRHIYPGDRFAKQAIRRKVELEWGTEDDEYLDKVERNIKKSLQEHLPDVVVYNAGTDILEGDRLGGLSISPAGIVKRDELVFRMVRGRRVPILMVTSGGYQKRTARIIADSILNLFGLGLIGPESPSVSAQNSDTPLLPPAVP
Protocol: as §1, §2, §3, §4

pIC50 [1] | pIC50 [2] | SMILES
≥ 7.00 | < 6.30 | COc1ccc(C(=O)N2CCC3(CCc4ccc(C(=O)NO)cc4C3)C2)cc1 (centres unmarked) [Compound I-1, N-hydroxy-1′-(4-methoxybenzoyl)-3,4-dihydro-1H-spiro[naphthalene-2,3′-pyrrolidine]-7-carboxamide]
≥ 7.00 | < 6.30 | COc1ccc(S(=O)(=O)N2CCC3(CCc4ccc(C(=O)NO)cc4C3)C2)cc1 (centres unmarked) [Compound I-2, N-hydroxy-1′-((4-methoxyphenyl)sulfonyl)-3,4-dihydro-1H-spiro[naphthalene-2,3′-pyrrolidine]-7-carboxamide]
6.30 to 7.00 | < 6.30 | COc1ccc(CN2CCC3(CCc4ccc(C(=O)NO)cc4C3)C2)cc1 (centres unmarked) [Compound I-3, N-hydroxy-1′-(4-methoxybenzyl)-3,4-dihydro-1H-spiro[naphthalene-2,3′-pyrrolidine]-7-carboxamide]
≥ 7.00 | < 6.30 | O=C(NO)c1ccc2c(c1)CC1(CC2)CCN(C(=O)C2CCCCC2)C1 (centres unmarked) [Compound I-4, 1′-(cyclohexanecarbonyl)-N-hydroxy-3,4-dihydro-1H-spiro[naphthalene-2,3′-pyrrolidine]-7-carboxamide]
≥ 7.00 | < 6.30 | O=C(NO)c1ccc2c(c1)CC1(CC2)CCN(C2CCCCC2)C1 (centres unmarked) [Compound I-5, 1′-cyclohexyl-N-hydroxy-3,4-dihydro-1H-spiro[naphthalene-2,3′-pyrrolidine]-7-carboxamide]
≥ 7.00 | 6.30 to 7.00 | O=C(NO)c1ccc2c(c1)CC1(CC2)CCN(C(=O)Nc2ccccc2)C1 (centres unmarked) [Compound I-6, N7-hydroxy-N1′-phenyl-3,4-dihydro-1H-spiro[naphthalene-2,3′-pyrrolidine]-1′,7-dicarboxamide]
≥ 7.00 | < 6.30 | O=C(NO)c1ccc2c(c1)CC1(CC2)CCN(S(=O)(=O)C2CCCCC2)C1 (centres unmarked) [Compound I-7, 1′-(cyclohexylsulfonyl)-N-hydroxy-3,4-dihydro-1H-spiro[naphthalene-2,3′-pyrrolidine]-7-carboxamide]
6.30 to 7.00 | < 6.30 | O=C(NO)c1ccc2c(c1)CC1(CCNC1)CC2 (centres unmarked) [Compound I-8, N-hydroxy-3,4-dihydro-1H-spiro[naphthalene-2,3′-pyrrolidine]-7-carboxamide]
6.30 to 7.00 | < 6.30 | CN1CCC2(CCc3ccc(C(=O)NO)cc3C2)C1 (centres unmarked) [Compound I-9, N-hydroxy-1′-methyl-3,4-dihydro-1H-spiro[naphthalene-2,3′-pyrrolidine]-7-carboxamide]
≥ 7.00 | < 6.30 | O=CN1CCC2(CCc3ccc(C(=O)NO)cc3C2)C1 (centres unmarked) [Compound I-10, 1′-formyl-N-hydroxy-3,4-dihydro-1H-spiro[naphthalene-2,3′-pyrrolidine]-7-carboxamide]
6.30 to 7.00 | < 6.30 | CC(C)N1CCC2(CCc3ccc(C(=O)NO)cc3C2)C1 (centres unmarked) [Compound I-11, N-hydroxy-1′-isopropyl-3,4-dihydro-1H-spiro[naphthalene-2,3′-pyrrolidine]-7-carboxamide]
≥ 7.00 | < 6.30 | CC(=O)N1CCC2(CCc3ccc(C(=O)NO)cc3C2)C1 (centres unmarked) [Compound I-12, 1′-acetyl-N-hydroxy-3,4-dihydro-1H-spiro[naphthalene-2,3′-pyrrolidine]-7-carboxamide]
≥ 7.00 | < 6.30 | CS(=O)(=O)N1CCC2(CCc3ccc(C(=O)NO)cc3C2)C1 (centres unmarked) [Compound I-13, N-hydroxy-1′-(methylsulfonyl)-3,4-dihydro-1H-spiro[naphthalene-2,3′-pyrrolidine]-7-carboxamide]
≥ 7.00 | < 6.30 | COc1cccc(CN2CCC3(CCc4ccc(C(=O)NO)cc4C3)C2)c1 (centres unmarked) [Compound I-14, N-hydroxy-1′-(3-methoxybenzyl)-3,4-dihydro-1H-spiro[naphthalene-2,3′-pyrrolidine]-7-carboxamide]
≥ 7.00 | < 6.30 | COc1ccccc1CN1CCC2(CCc3ccc(C(=O)NO)cc3C2)C1 (centres unmarked) [Compound I-15, N-hydroxy-1′-(2-methoxybenzyl)-3,4-dihydro-1H-spiro[naphthalene-2,3′-pyrrolidine]-7-carboxamide]
≥ 7.00 | < 6.30 | O=C(NO)c1ccc2c(c1)C[C@@]1(CC2)CCN(c2ccccc2)C1 [Compound I-16, (S)—N-hydroxy-1′-phenyl-3,4-dihydro-1H-spiro[naphthalene-2,3′-pyrrolidine]-7-carboxamide]
≥ 7.00 | < 6.30 | O=C(NO)c1ccc2c(c1)C[C@]1(CC2)CCN(c2ccccc2)C1 [Compound I-17, (R)—N-hydroxy-1′-phenyl-3,4-dihydro-1H-spiro[naphthalene-2,3′-pyrrolidine]-7-carboxamide]
≥ 7.00 | – | O=C(NO)c1ccc2c(c1)C[C@]1(CC2)CC(=O)N(C2CCC2)C1 [Compound I-150, (R)-1′-cyclobutyl-N-hydroxy-5′-oxo-3,4-dihydro-1H-spiro[naphthalene-2,3′-pyrrolidine]-7-carboxamide]
≥ 7.00 | – | O=C(NO)c1ccc2c(c1)C[C@@]1(CC2)CC(=O)N(C2CCC2)C1 [Compound I-151, (S)-1′-cyclobutyl-N-hydroxy-5′-oxo-3,4-dihydro-1H-spiro[naphthalene-2,3′-pyrrolidine]-7-carboxamide]
≥ 7.00 | – | O=C(NO)c1ccc2c(c1)C[C@]1(CC2)CC(=O)N(C2CCCC2)C1 [Compound I-152, (R)-1′-cyclopentyl-N-hydroxy-5′-oxo-3,4-dihydro-1H-spiro[naphthalene-2,3′-pyrrolidine]-7-carboxamide]
≥ 7.00 | – | O=C(NO)c1ccc2c(c1)C[C@@]1(CC2)CC(=O)N(C2CCCC2)C1 [Compound I-153, (S)-1′-cyclopentyl-N-hydroxy-5′-oxo-3,4-dihydro-1H-spiro[naphthalene-2,3′-pyrrolidine]-7-carboxamide]
